Here are results for seven compounds from PubChem BioAssay (NCI).

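1) Cells in 96-well plates. 2) Compound, 48 h, 5 concentrations. 3) Linear interpolation between surrounding doses. 4) Unreached endpoint = highest concentration. Definition used: TGI = concentration required for complete inhibition of growth.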 Some results are limits rather than exact numbers.

Holding throughout (test): NCI tumour cell line growth inhibition, 48 h
The subject of test [1] is DMS 114 small cell lung.
Test [2] relates to DU-145 prostate.
For test [3], the system named is MDA-MB-231 breast.
Test [4] deals with MDA-N.
The subject of test [5] is NCI/ADR-RES ovarian.
The subject of test [6] is PC-3 prostate.
Test [7] has as its system RXF-631 renal.
The test system of test [8] is HS 578T breast.
The test system of test [9] is P388 leukemia.
Test [10] has as its system P388/ADR leukemia.
Test [11] has as its system SN12K1 renal.

In test [1], `Nc1ccccc1Sc1ccc(Cl)cc1` yielded a TGI of 59.3 µM.

For `CCCCN(CCCC)c1ccc(N=Nc2ccc(S(=O)(=O)O)cc2)cc1`, the TGI was more than 100 µM in test [2]; 64.7 µM in test [3]; more than 100 µM in test [4]; 70.9 µM in test [5]; 97.1 µM in test [6].

With `C/C(=C1/N=C(c2cc([N+](=O)[O-])ccc2Cl)N(C2=CC=C(Cl)CC2)C1=O)c1cc2ccccc2oc1=O`, the TGI in [1] and in test [7] was more than 100 µM each time.

Consider `Cc1cc(S(N)(=O)=O)c(S/C(=N\Nc2ccc([N+](=O)[O-])cc2)c2ccc(Cl)cc2)cc1Cl`, for which the TGI in test [2] was 5.51 µM; in test [8], more than 100 µM; in test [3], 8.27 µM.

As to `COc1cccc(NC(=O)N/C(=C/c2ccc(N(CCC#N)CCC#N)cc2)NC(=O)c2cc([N+](=O)[O-])ccc2Cl)c1`, the TGI in test [1] and in [7] was more than 100 µM throughout.

Regarding `CC(=O)/C=C/c1c[nH]c(=O)[nH]c1=O`, the TGI in test [1] came out at 585 µM; in [5] it was 781 µM; in test [9] it was 718 µM; in [10] it was 893 µM; in test [11], 341 µM.

With `O=C(COC(=O)c1ccccc1)c1ccc(Br)cc1`, the TGI in test [2] was 64.6 µM; in [8], 29.6 µM; in test [3], 30.5 µM; in test [4], 16.4 µM; in [5] it was 61.9 µM; in test [6], 38.7 µM.
